The text below walks through data of patent publication US20020183518A1, “Modulators of proteins with phosphotyrosine recognition units” (ONTOGEN CORPORATION, priority 1995, published 2002).

Structures are written as SMILES.

For experiment [1], the target named is T1, PTP-1B (Homo sapiens, UniProt P18031).
T1 construct: known to encode a 321 amino acid fragment containing the PTP-1B catalytic domain and having PTPase activity; made in house; host or cells: E. coli DH5α, plasmid pGEX-3X-PTP-1B
T1 sequence (P18031 3-277 limits assumed): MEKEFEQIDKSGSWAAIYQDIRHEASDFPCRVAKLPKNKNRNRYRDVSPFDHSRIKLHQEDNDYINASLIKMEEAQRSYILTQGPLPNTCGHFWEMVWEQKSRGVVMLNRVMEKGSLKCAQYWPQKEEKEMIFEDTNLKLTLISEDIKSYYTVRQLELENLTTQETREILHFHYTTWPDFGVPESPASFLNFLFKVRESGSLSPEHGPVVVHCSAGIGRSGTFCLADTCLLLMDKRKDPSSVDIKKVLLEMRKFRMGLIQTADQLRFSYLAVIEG
Kind of experiment: In vitro PTPase inhibition assay (pNPP, colorimetric), PTP-1B. It is filed as biochemical. Conditions: Table 9; read-out: IC50 values against PTP1B. The method, then:
PTP-1B enzymatic activity of samples was assayed in microtiter plates as follows. The protein concentration of the PTP-1B enzyme preparation was determined using the Bio-Rad Protein Assay kit (Bio-Rad, Hercules Calif.). […] Reactions were mixed gently and incubated at 37° C. for 60 minutes. Enzymatic cleavage of phosphate from pNPP (a tyrosine phosphate analog) is marked by a colorimetric change in this substrate. See, e.g., Imbert et al., Biochem J., 297:163-173 (1994); Ghosh and Miller, Biochem. Biophys. Res. […] Zanke et al., Eur. J. […] To determine the enzymatic activity, absorbance readings of the reactions were measured at 405 nm using a Molecular Devices Thermomax Plate Reader (Menlo Park Calif.). […] Purified phosphatase was added to the reaction mixtures to begin the reactions; the reactions were incubated at 37° C. for 60 min. […] (for PTP-1C and PTPα assays), stopped, and colorimetrically analyzed as described above. […] First, absorbance readings from the negative control reactions were treated as a baseline and subtracted from the absorbance readings of the experimental reactions. Then, for each reaction, a percent inhibition was calculated using the following formula: […] For each inhibitor compound tested, an IC50 concentration was calculated from a best-fit computer analysis of the calculated percent inhibition for the various dilutions of the compound. PTP-1B enzymatic activity of samples was assayed in microtiter plates as follows. The protein concentration of the PTP-1B enzyme preparation was determined using the Bio-Rad Protein Assay kit (Bio-Rad, Hercules Calif.). […] Reactions were mixed gently and incubated at 37° C. for 60 minutes. Enzymatic cleavage of phosphate from pNPP (a tyrosine phosphate analog) is marked by a colorimetric change in this substrate. See, e.g., Imbert et al., Biochem J., 297:163-173 (1994); Ghosh and Miller, Biochem. Biophys. Res. […] Zanke et al., Eur. […] To determine the enzymatic activity, absorbance readings of the reactions were measured at 405 nm using a Molecular Devices Thermomax Plate Reader (Menlo Park Calif.). […] Purified phosphatase was added to the reaction mixtures to begin the reactions; the reactions were incubated at 37° C. for 60 min. […] (for PTP-1C and PTPα assays), stopped, and calorimetrically analyzed as described above. […] First, absorbance readings from the negative control reactions were treated as a baseline and subtracted from the absorbance readings of the experimental reactions. Then, for each reaction, a percent inhibition was calculated using the following formula: […] For each inhibitor compound tested, an IC50 concentration was calculated from a best-fit computer analysis of the calculated percent inhibition for the various dilutions of the compound.

Experiment [2] concerns the target T2, CD45 (Homo sapiens, UniProt P08575).
T2 construct: The PCR reaction product (2127 bp) was digested with Sma I (New England Biolabs, Beverly Mass.) to yield a 2110 bp product; made in house; host or cells: E. coli DH5α, plasmid pET24C-CD45
T2 sequence (P08575 599-1306 limits assumed): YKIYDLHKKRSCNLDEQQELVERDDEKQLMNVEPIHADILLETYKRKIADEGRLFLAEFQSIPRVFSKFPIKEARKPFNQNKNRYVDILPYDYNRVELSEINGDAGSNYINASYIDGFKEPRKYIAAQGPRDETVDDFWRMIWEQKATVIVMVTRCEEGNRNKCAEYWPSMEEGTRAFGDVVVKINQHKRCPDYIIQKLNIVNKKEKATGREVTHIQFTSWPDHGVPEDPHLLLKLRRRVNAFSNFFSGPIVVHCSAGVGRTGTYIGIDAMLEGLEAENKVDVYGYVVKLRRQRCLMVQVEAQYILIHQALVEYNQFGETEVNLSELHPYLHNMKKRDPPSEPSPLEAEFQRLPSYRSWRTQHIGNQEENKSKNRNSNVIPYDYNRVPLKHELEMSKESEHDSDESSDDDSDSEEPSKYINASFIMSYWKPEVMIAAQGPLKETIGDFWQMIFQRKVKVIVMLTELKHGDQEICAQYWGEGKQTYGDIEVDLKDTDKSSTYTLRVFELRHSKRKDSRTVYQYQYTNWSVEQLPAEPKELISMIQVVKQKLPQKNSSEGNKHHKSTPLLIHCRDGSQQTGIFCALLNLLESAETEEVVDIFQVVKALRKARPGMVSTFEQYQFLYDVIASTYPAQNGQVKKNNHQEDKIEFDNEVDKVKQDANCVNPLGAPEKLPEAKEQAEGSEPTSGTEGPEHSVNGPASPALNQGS
Kind of experiment: In vitro PTPase inhibition assay (pNPP, colorimetric), CD45. It is filed as biochemical. The settings on record: Table 9; read-out: IC50 values against CD45. The protocol:
CD45 enzymatic activity of samples was assayed in microtiter plates as follows. […] Louis Mo.), and 80 ul of activity assay buffer (100 mM sodium acetate, pH 6.0, 1 mM EDTA, 0.1% Triton X-100, 15 mM bME). Reactions were mixed gently and incubated at 37° C. for 60 minutes. […] To determine the enzymatic activity, absorbance readings of the reactions were measured at 405 nm using a Molecular Devices Thermomax Plate Reader (Menlo Park Calif.). […] Purified phosphatase was added to the reaction mixtures to begin the reactions; the reactions were incubated at 37° C. for 60 min. […] (for PTP-1C and PTPα assays), stopped, and colorimetrically analyzed as described above. […] First, absorbance readings from the negative control reactions were treated as a baseline and subtracted from the absorbance readings of the experimental reactions. Then, for each reaction, a percent inhibition was calculated using the following formula: […] For each inhibitor compound tested, an IC50 concentration was calculated from a best-fit computer analysis of the calculated percent inhibition for the various dilutions of the compound. CD45 enzymatic activity of samples was assayed in microtiter plates as follows. […] Louis Mo.), and 80 ul of activity assay buffer (100 mM sodium acetate, pH 6.0, 1 mM EDTA, 0. 1% Triton X-100, 15 mM bME). Reactions were mixed gently and incubated at 37° C. for 60 minutes. […] To determine the enzymatic activity, absorbance readings of the reactions were measured at 405 nm using a Molecular Devices Thermomax Plate Reader (Menlo Park Calif.). […] Purified phosphatase was added to the reaction mixtures to begin the reactions; the reactions were incubated at 37° C. for 60 min. […] (for PTP-1C and PTPα assays), stopped, and calorimetrically analyzed as described above. […] First, absorbance readings from the negative control reactions were treated as a baseline and subtracted from the absorbance readings of the experimental reactions. Then, for each reaction, a percent inhibition was calculated using the following formula: […] For each inhibitor compound tested, an IC50 concentration was calculated from a best-fit computer analysis of the calculated percent inhibition for the various dilutions of the compound.

`O=C(O)/C=C/c1ccc(C(=O)C(=O)c2ccc(/C=C/C(=O)O)cc2)cc1` [Compound 9]: the IC50 turned out to be 370 nM in experiment [1] and 3900 nM in experiment [2].

Take `O=C(O)/C=C/c1ccc(-c2nc(-c3ccc(C(=O)O)cc3)[nH]c2-c2ccc(/C=C/C(=O)O)cc2)cc1` [Compound 54]: the IC50 in experiment [1] stood at 72 nM; in experiment [2], 730 nM.

In the case of `O=C(O)/C=C/c1ccc(-c2nc[nH]c2-c2ccc(/C=C/C(=O)O)cc2)cc1` [Compound 55], the IC50 in experiment [1] was determined as 100 nM; in experiment [2], 560 nM.

On to `O=C(O)/C=C/c1ccc(-c2nc(-c3ccccc3[N+](=O)[O-])[nH]c2-c2ccc(/C=C/C(=O)O)cc2)cc1` [Compound 57], for which the figures for the 50% inhibitory concentration (IC50) in experiment [1] and in experiment [2] were 250 nM and 1000 nM, respectively.

Regarding `COc1ccc(-c2nc(-c3ccc(/C=C/C(=O)O)cc3)c(-c3ccc(/C=C/C(=O)O)cc3)[nH]2)cc1` [Compound 58], the half-inhibitory concentration (IC50) in experiment [1] turned out to be 250 nM; in experiment [2], 970 nM.

Take `COc1cccc(-c2nc(-c3ccc(/C=C/C(=O)O)cc3)c(-c3ccc(/C=C/C(=O)O)cc3)[nH]2)c1[N+](=O)[O-]` [Compound 59]: the IC50 worked out at 250 nM in experiment [1] and 350 nM in experiment [2].

As for `O=C(O)/C=C/c1ccc(-c2nc(-c3ccco3)[nH]c2-c2ccc(/C=C/C(=O)O)cc2)cc1` [Compound 60], the results for the IC50 in experiment [1] and in experiment [2] were 290 nM and 1000 nM, respectively.

On to `O=C(O)/C=C/c1ccc(-c2nc(-c3cccc(F)c3)[nH]c2-c2ccc(/C=C/C(=O)O)cc2)cc1` [Compound 61], for which the IC50 in experiment [1] turned out to be 970 nM; in experiment [2], 955 nM.

As to `O=C(O)/C=C/c1ccc(-c2nc(-c3ccc4ccccc4n3)[nH]c2-c2ccc(/C=C/C(=O)O)cc2)cc1` [Compound 63], the IC50 was found to be 1700 nM in experiment [1] and 2400 nM in experiment [2].

As for `COC(=O)c1ccc2cc(-c3nc(-c4ccc(/C=C/C(=O)O)cc4)c(-c4ccc(/C=C/C(=O)O)cc4)[nH]3)[nH]c2c1` [Compound 64], the concentration for half-maximal inhibition (IC50) in experiment [1] is 3000 nM; in experiment [2] it was 6400 nM.

For the molecule `O=C(O)/C=C/c1ccc(-c2nc(-c3cc(F)cc(F)c3)[nH]c2-c2ccc(/C=C/C(=O)O)cc2)cc1` [Compound 65], the results for the IC50 in experiment [1] and in experiment [2] were 1300 nM and 1400 nM, respectively.

Consider `O=C(O)/C=C/c1ccc(-c2nc(-c3ccc(F)c(F)c3)[nH]c2-c2ccc(/C=C/C(=O)O)cc2)cc1` [Compound 66], for which the IC50 in experiment [1] is 1700 nM; in experiment [2] it was 2500 nM.

For `O=C(O)/C=C/c1ccc(-c2nc(-c3cccc(F)c3F)[nH]c2-c2ccc(/C=C/C(=O)O)cc2)cc1` [Compound 67], the results for the concentration for half-maximal inhibition (IC50) in experiment [1] and in experiment [2] were 1000 nM and 1250 nM, respectively.

On to `CCN(CC)c1ccc(-c2nc(-c3ccc(/C=C/C(=O)O)cc3)c(-c3ccc(/C=C/C(=O)O)cc3)[nH]2)cc1` [Compound 68], for which the results for the IC50 in experiment [1] and in experiment [2] were 300 nM and 865 nM, respectively.

As for `COc1cccc(-c2nc(-c3ccc(/C=C/C(=O)O)cc3)c(-c3ccc(/C=C/C(=O)O)cc3)[nH]2)c1O` [Compound 69], the results for the half-inhibitory concentration (IC50) in experiment [1] and in experiment [2] were 410 nM and 1900 nM, respectively.

Take `O=C(O)/C=C/c1ccc(-c2nc(-c3cccs3)[nH]c2-c2ccc(/C=C/C(=O)O)cc2)cc1` [Compound 70]: the IC50 in experiment [1] came to 420 nM; in experiment [2] it was 1900 nM.

Consider `O=C(O)/C=C/c1ccc(-c2nc(-c3ccc4c(c3)OCCO4)[nH]c2-c2ccc(/C=C/C(=O)O)cc2)cc1` [Compound 71], for which the figures for the IC50 in experiment [1] and in experiment [2] were 430 nM and 530 nM, respectively.

Turning to `COc1cc(OC)c(OC)c(-c2nc(-c3ccc(/C=C/C(=O)O)cc3)c(-c3ccc(/C=C/C(=O)O)cc3)[nH]2)c1` [Compound 72], the IC50 in experiment [1] stood at 520 nM; in experiment [2] it was 5500 nM.

Consider `N#Cc1ccc(-c2nc(-c3ccc(/C=C/C(=O)O)cc3)c(-c3ccc(/C=C/C(=O)O)cc3)[nH]2)cc1` [Compound 73], for which the 50% inhibitory concentration (IC50) in experiment [1] is 620 nM; in experiment [2], 2800 nM.

With `Cn1cc(-c2nc(-c3ccc(/C=C/C(=O)O)cc3)c(-c3ccc(/C=C/C(=O)O)cc3)[nH]2)c2ccccc21` [Compound 74], the IC50 in experiment [1] turned out to be 640 nM; in experiment [2], 4200 nM.

Take `O=C(O)/C=C/c1ccc(-c2nc(-c3ccccc3)[nH]c2-c2ccc(/C=C/C(=O)O)cc2)cc1` [Compound 75]: the IC50 in experiment [1] was found to be 680 nM; in experiment [2], 3400 nM.

For the molecule `O=C(O)/C=C/c1ccc(-c2nc(-c3cc(F)ccc3F)[nH]c2-c2ccc(/C=C/C(=O)O)cc2)cc1` [Compound 76], the IC50 worked out at 680 nM in experiment [1] and 930 nM in experiment [2].

On to `CCCCCc1nc(-c2ccc(/C=C/C(=O)O)cc2)c(-c2ccc(/C=C/C(=O)O)cc2)[nH]1` [Compound 77], for which the half-inhibitory concentration (IC50) in experiment [1] amounted to 780 nM; in experiment [2], 7500 nM.

As for `O=C(O)/C=C/c1ccc(-c2nc(-c3ccccc3F)[nH]c2-c2ccc(/C=C/C(=O)O)cc2)cc1` [Compound 78], the IC50 in experiment [1] is 790 nM; in experiment [2] it was 1150 nM.

For the molecule `O=C(O)/C=C/c1ccc(-c2nc(/C=C/c3ccccc3)[nH]c2-c2ccc(/C=C/C(=O)O)cc2)cc1` [Compound 79], the IC50 in experiment [1] was 4800 nM; in experiment [2], 8200 nM.

Broadly, the IC50 is the midpoint of a concentration-inhibition curve.
